The source of these data is patent publication US11564928B1, “Cannabinoid receptor type 2 (CB2) modulators and uses thereof” (Teon Therapeutics, Inc., priority 2020, dated 2023).

Where only a bound is given, the exact number is not on record here.

The target in assay [1] is T1, human CB2 receptor (Homo sapiens (Human), UniProt P34972). As to the kind of experiment: CB2 receptor cAMP assay (DiscoverX HitHunter cAMP XS+). It counts as cell-based. Conditions: for Emax: CHO-K1, read-out: Max Stimulation %. The procedure, abridged:
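CHO-K1 cells expressing human CB2, HitHunter cAMP XS+ chemiluminescence. Agonist mode with EC80 forskolin, inverse agonist with EC20 forskolin, antagonist mode by compound preincubation 30 min then EC80 agonist plus EC80 forskolin; 30 or 60 min at 37 °C or RT, 1% vehicle. IC50 from variable-slope fit.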
A general note: Changes in cAMP serve as a functional read-out for many G protein-coupled receptors.

Assay [2] deals with human recombinant CB1R (Homo sapiens (Human), UniProt P21554). As to the kind of experiment: CB1 receptor binding assay ([3H]CP-55,940 displacement, HEK-293 membranes). Conditions: membranes of HEK-293 cells with human recombinant CB1R, [3H]CP-55,940; read-out: CB1 IC50. The procedure, abridged: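 Membranes from HEK-293 cells expressing human recombinant CB1R or CB2R were incubated with [3H]CP-55,940 and compound for 120 min at 37 °C in duplicate. The CB2R incubation buffer was 50 mM Tris-HCl, 5 mM MgCl2, 1 mM CaCl2, 0.2% BSA, pH 7.4. Bound radioactivity was filtered and counted, and IC50 was converted to Ki by Cheng–Prusoff.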

The target of assay [3] is T1, human CB2 receptor. The assay can be described thus: CB2 receptor binding assay ([3H]CP-55,940 displacement, HEK-293 membranes). Particulars: membranes of HEK-293 cells with human recombinant CB2R, [3H]CP-55,940; read-out: CB2 IC50.

Chain of human recombinant CB1R (P21554 whole entry): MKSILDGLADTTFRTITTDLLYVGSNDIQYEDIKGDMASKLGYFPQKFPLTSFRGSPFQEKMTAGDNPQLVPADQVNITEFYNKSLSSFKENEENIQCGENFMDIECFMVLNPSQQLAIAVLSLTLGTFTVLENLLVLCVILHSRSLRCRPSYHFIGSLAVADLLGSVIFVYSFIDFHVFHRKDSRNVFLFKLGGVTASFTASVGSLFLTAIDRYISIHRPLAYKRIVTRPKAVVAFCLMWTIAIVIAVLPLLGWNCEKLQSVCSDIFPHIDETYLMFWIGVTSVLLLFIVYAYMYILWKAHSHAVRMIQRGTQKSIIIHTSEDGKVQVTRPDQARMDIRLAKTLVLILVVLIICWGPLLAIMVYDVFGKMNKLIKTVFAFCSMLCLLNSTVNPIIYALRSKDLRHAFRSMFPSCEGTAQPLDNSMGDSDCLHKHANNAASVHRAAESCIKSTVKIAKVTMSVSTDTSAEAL
T1 sequence (P34972 whole entry): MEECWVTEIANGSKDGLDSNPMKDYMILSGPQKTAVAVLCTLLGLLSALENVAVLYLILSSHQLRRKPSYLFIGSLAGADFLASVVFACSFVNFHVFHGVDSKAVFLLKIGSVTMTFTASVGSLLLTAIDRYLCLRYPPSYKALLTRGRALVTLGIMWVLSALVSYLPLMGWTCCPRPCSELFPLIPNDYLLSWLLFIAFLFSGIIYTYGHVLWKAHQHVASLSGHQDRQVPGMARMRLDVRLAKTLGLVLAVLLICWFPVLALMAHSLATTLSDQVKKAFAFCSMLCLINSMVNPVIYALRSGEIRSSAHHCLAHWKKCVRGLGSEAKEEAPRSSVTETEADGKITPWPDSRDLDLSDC

As a reminder, the IC50 is the concentration at which inhibition is half-maximal. As for `C[C@@H](NC(=O)c1cc2cc(C3CC3)cnc2n(Cc2ccc(F)cc2)c1=O)c1ccc(F)cc1` [Compound 94, (R)-6-cyclopropyl-1-(4-fluorobenzyl)-N-(1-(4-fluorophenyl)ethyl)-2-oxo-1,2-dihydro-1,8-naphthyridine-3-carboxamide], the IC50 is 0.8 nM in assay [1], 3260 nM in assay [2] and 4.1 nM in assay [3]. Besides, the Emax in assay [1] amounted to 55%.
For the compound `C[C@@H](NC(=O)c1cc2cc(C3CC3)cnc2n(Cc2ccc(F)cc2)c1=O)c1ccc(C#N)cc1` [Compound 95, (R)—N-(1-(4-cyanophenyl)ethyl)-6-cyclopropyl-1-(4-fluorobenzyl)-2-oxo-1,2-dihydro-1,8-naphthyridine-3-carboxamide], the IC50 in assay [1] came out at 2 nM; in assay [2] it was 895 nM; in assay [3] it was 3.2 nM. For the same compound, the Emax in assay [1] turned out to be 60%.
The like results for `O=C(NC1CC2(CCC2)C1)c1cc2cc(Br)cnc2n(Cc2ccc(F)cn2)c1=O` [Compound 99, 6-bromo-1-((5-fluoropyridin-2-yl)methyl)-2-oxo-N-(spiro[3.3]heptan-2-yl)-1,2-dihydro-1,8-naphthyridine-3-carboxamide] were, in that order, 53 nM, greater than 10000 nM, 12 nM and 89%.
As for `CC(C)c1cnc2c(c1)cc(C(=O)N[C@H](C)c1ccc(F)cc1)c(=O)n2Cc1ccc(F)cn1` [Compound 100, (R)—N-(1-(4-fluorophenyl)ethyl)-1-((5-fluoropyridin-2-yl)methyl)-6-isopropyl-2-oxo-1,2-dihydro-1,8-naphthyridine-3-carboxamide], the concentration for half-maximal inhibition (IC50) worked out at 2 nM in assay [1], 2880 nM in assay [2] and 4 nM in assay [3]. Also, the Emax in assay [1] stood at 82%.
The matching figures for `C[C@@H](NC(=O)c1cc2cc(C3COC3)cnc2n(Cc2ccc(F)cc2)c1=O)c1ccc(C#N)cc1` [Compound 101, (R)—N-(1-(4-cyanophenyl)ethyl)-1-(4-fluorobenzyl)-6-(oxetan-3-yl)-2-oxo-1,2-dihydro-1,8-naphthyridine-3-carboxamide]: 21 nM, 2110 nM, 7.6 nM and 71%.
Turning to `O=C(NC1CC2(CCC2)C1)c1cc2cc(C3COC3)cnc2n(Cc2ccc(F)cc2)c1=O` [Compound 102, 1-(4-fluorobenzyl)-6-(oxetan-3-yl)-2-oxo-N-(spiro[3.3]heptan-2-yl)-1,2-dihydro-1,8-naphthyridine-3-carboxamide], the concentration for half-maximal inhibition (IC50) in assay [1] turned out to be 3 nM; in assay [2], 1610 nM; in assay [3] it was 2.3 nM. Further, in assay [1], the Emax was determined as 79%.
Regarding `C[C@@H](NC(=O)c1cc2cc(C3COC3)cnc2n(Cc2ccc(F)cc2)c1=O)c1ccc(F)cc1` [Compound 103, (R)-1-(4-fluorobenzyl)-N-(1-(4-fluorophenyl)ethyl)-6-(oxetan-3-yl)-2-oxo-1,2-dihydro-1,8-naphthyridine-3-carboxamide], the figures for the IC50 in assay [1], in assay [2] and in assay [3] were 9 nM, 2900 nM and 3 nM, respectively. In addition, the Emax in assay [1] stood at 91%.
Turning to `COc1ccc(-c2cnc3c(c2)cc(C(=O)NCc2ccc(F)cc2)c(=O)n3CCN2CCOCC2)cc1` [Compound 105, N-(4-fluorobenzyl)-6-(4-methoxyphenyl)-1-(2-morpholinoethyl)-2-oxo-1,2-dihydro-1,8-naphthyridine-3-carboxamide], the IC50 is 28 nM in assay [1], greater than 10000 nM in assay [2] and 14 nM in assay [3]. Besides, the Emax in assay [1] is 116%.
